One block for each molecule: values may come before it.
Experiments:
[1] = tested on: bovine aortic endothelial cells receptor for Ang II; experiment: Binding of ^125 I-Ang II to cultured bovine aortic endothelial cells
Source text: We first studied the role of angiotensin (Ang) II in the regulation of endothelial fibrinolysis, by determining if Ang II binds to the target cell, which in this case was bovine aortic endothelial cells. In these experiments, we used early passage bovine aortic endothelial cells (P2-4) grown to confluence in DMEM supplemented with penicillin, streptomycin, and 10% newborn calf serum.
To test whether the Ang II receptor on the bovine aortic endothelial cells is similar or identical to the classic AT1 receptor, we measured the potency of the antagonist saralasin for binding.

PAI-1 [2] = experiment: PAI-1 secretion into conditioned media of bovine aortic endothelial cells (ELISA; activity); assay type: cell-based
Experimental: FIG. 6 is a dose response curve of PAI-1 secretion into the conditioned media of bovine aortic endothelial cells following exposure to Ang II.
In these experiments, we investigated the effects of Ang II on the secretion of PAI-1 into the media of cultured endothelial cells. […] Ang II (in the concentrations indicated) was added to washed, confluent cultures of bovine aortic endothelial cells, and the conditioned media was removed for assay after 18 hour. Levels of PAI-1 antigen in the media were determined using a specific ELISA for PAI-1, such as the assay described in DeClerk et al., Blood (1988) 71:220-225, or the assay sold by Biopool, AB, Umea, Sweden.
(§1) The increases in PAI-1 activity and antigen observed thus far have been associated with an approximate 4-fold increase in PAI-1 message (FIGS. 7 and 8). The cells for these experiments were incubated for 8 hour in fresh serum-free media containing the indicated concentrations of Ang II. Total RNA was extracted and analyzed by Northern blotting.

PAI-1 mRNA = PAI-1 mRNA induction in bovine aortic endothelial cells (Northern / slot blot); assay type: cell-based; conditions: for effect on Ang II stimulation of PAI-1 mRNA levels: antagonist 1 μM
Experimental: FIG. 7 is a Northern blot showing the induction of PAI-1 RNA after treatment of bovine aortic endothelial cells with angiotensin II.
FIG. 8 is a graph showing the dose response of PAI-1 RNA induction by Ang II.
FIG. 9 is a Northern blot showing the time course of induction of PAI-1 RNA after treatment of bovine aortic endothelial cells with 20 nM angiotensin II.
FIG. 10 is a graph showing the PAI-1 mRNA levels as a function of time, in bovine aortic endothelial cells treated with 20 nM angiotensin II.
as §1
Ang II is also associated with a time-dependent increase in PAI-1 mRNA that peaks 6-8 hrs after exposure to Ang II, as assessed by Northern blot analysis (FIG. 9). Confluent cultures of bovine aortic endothelial cells were incubated with 20 nM Ang II in serum-free DMEM. Total cytoplasmic RNA was extracted at the indicated times and analyzed by Northern blotting (FIG. 9). The results corresponding to the 3.3-kb PAI-1 mRNA species were quantified by transmission densitometry. To control for variability in gel loading, the blots were stripped and rehybridized with a cDNA probe for β-actin. Normalized data are plotted in the FIG. 10.

t-PA [3] = experiment: t-PA antigen or activity in conditioned media of bovine aortic endothelial cells; assay type: cell-based
PAI-1 [4] = experiment: Plasma PAI-1 during Ang II infusion in human volunteers; assay type: in vivo
Experimental: (§2) Second, this binding appears to have a functional effect on bovine aortic endothelial cells in inducing the synthesis of PAI-1 message and the secretion of PAI-1 into the conditioned media. Importantly, we have observed increased levels of PAI-1 mRNA induced by physiologically relevant doses of Ang II (i.e. 0.1 nM). The potential significance of these in vitro findings are supported by recent data obtained during the infusion of Ang II into healthy human volunteers. In these studies, normotensive volunteers (N=4) received an infusion of Ang II in graded doses of 1.0, 3.0. and 10.0 ng/kg/min., while 4 additional normotensive volunteers received an infusion of D5W. Plasma levels of t-PA and PAI-1 were measured prior to and at the conclusion of each dose. […] Similar findings have been obtained in an additional group of hypertensive volunteers (N=6) that received a constant infusion of Ang II (3 ng/kg/min) over a 45 min period. In these individuals, we observed a 60% increase in plasma PAI-1 compared with pretreatment levels (p<0.04).

t-PA [5] = experiment: Plasma t-PA during Ang II infusion in human volunteers; assay type: in vivo
Experimental: as §2

[6] = Mean blood pressure during graded infusions in rabbits; assay type: in vivo, New Zealand White rabbits; conditions: for effect on mean blood pressure: graded infusions, healthy rabbits
Source text: FIG. 11 is a graph of the mean BP at baseline and after increasing doses of Ang II alone, Ang IV alone, saline, and Ang II in rabbits pretreated with amastatin. Error bars represent SEM.
(§3) We have also undertaken a series of experiments designed to identify the specific form of angiotensin that is responsible for the increased plasma PAI-1 levels seen in our human studies. We examined the effects of graded infusions of Ang II and Ang IV on blood pressure and plasma PAI activity in healthy New Zealand White rabbits.

PAI-1 [7] = experiment: Plasma PAI-1 during graded infusions in rabbits; assay type: in vivo, New Zealand White rabbits; conditions: for effect on plasma PAI-1 levels: graded infusions, healthy rabbits
Source text: FIG. 12 is a graph of the mean plasma PAI-1 activity at baseline and after increasing doses of Ang II alone, Ang IV alone, saline, and Ang II in rabbits pretreated with amastatin. Error bars represent SEM.
as §3

AT1 receptor = conditions: well established property of the AT1 receptor; cited from earlier work
[8] = Ang II after pretreatment with amastatin

Molecule: O[C@H](CS)[C@H](O)CS (relative stereo) [DTT]
reduction in total binding ([1]; 5 mM DTT, ^125 I-Ang II (0.27 nM)): 50%

EC50 (PAI-1 [2]; PAI-1 antigen in conditioned media, 18 hour): ~20 nM | increase in PAI-1 message (PAI-1 mRNA; 8 hour, serum-free media, normalized to β-actin): ~4 fold
Molecule: CC[C@H](C)[C@H](NC(=O)[C@H](Cc1ccc(O)cc1)NC(=O)[C@@H](NC(=O)[C@H](CCCNC(=N)N)NC(=O)[C@@H](N)CC(=O)O)C(C)C)C(=O)N[C@@H](Cc1cnc[nH]1)C(=O)N1CCC[C@H]1C(=O)N[C@@H](Cc1ccccc1)C(=O)O [Ang II, angiotensin II]
effect on secretion of PAI-1 into media (PAI-1 [2]; 18 hour exposure, PAI-1 antigen ELISA): induce the secretion of PAI-1 in a dose-dependent manner | changes in PAI-1 activity (PAI-1 [2]; after reactivation of latent protein with guanidine hydrochloride): corresponding changes in PAI-1 activity | concentration at which increased levels of PAI-1 mRNA were observed (PAI-1 mRNA): 0.1 nM | time of peak PAI-1 mRNA after exposure (PAI-1 mRNA; 20 nM Ang II, serum-free DMEM): 6 to 8 h | effect on t-PA antigen or activity in conditioned media (t-PA [3]): not observed a similar increase in t-PA antigen or activity | effect on PAI-1 secretion/response in normotensive volunteers (PAI-1 [4]; graded infusion 1.0, 3.0 and 10.0 ng/kg/min): increased in the subjects that received the Ang II infusions in a dose-dependent manner | increase in plasma PAI-1 compared with pretreatment (PAI-1 [4]; hypertensive volunteers (N=6), 3 ng/kg/min over 45 min, p<0.04): 60% | plasma PAI-1 level (PAI-1 [4]; normotensive volunteers (N=4), infusion graded 1.0, 3.0 and 10.0 ng/kg/min, from 14.7±5.3, mean±SEM, p<0.001 by ANOVA): 33.5±10.6 | plasma t-PA levels (t-PA [5]): plasma t-PA levels do not increase | effect on mean blood pressure [6]: dose-dependent increase in mean blood pressure | effect on plasma PAI-1 levels (PAI-1 [7]): dose-dependent increase in plasma PAI-1 levels

Molecule: CC[C@H](C)[C@H](NC(=O)[C@H](Cc1ccc(O)cc1)NC(=O)[C@@H](N)C(C)C)C(=O)N[C@@H](Cc1cnc[nH]1)C(=O)N1CCC[C@H]1C(=O)N[C@@H](Cc1ccccc1)C(=O)O [Ang IV, VAL-TYR-ILE-HIS-PRO-PHE]
effect on mean blood pressure [6]: stable mean BP | effect on plasma PAI-1 levels (PAI-1 [7]): dose-dependent increase in plasma PAI-1 levels

Molecule: CCCCc1nc(Cl)c(CO)n1Cc1ccc(-c2ccccc2-c2nn[nH]n2)cc1 [Dup 753]
effect on Ang II stimulation of PAI-1 mRNA levels (PAI-1 mRNA): does not appear to be prevented

Molecule: CC(C)C[C@@H](N)[C@H](O)C(=O)N[C@H](C(=O)N[C@H](C(=O)N[C@@H](CC(=O)O)C(=O)O)C(C)C)C(C)C [amastatin]
effect on mean blood pressure, Ang II after amastatin pretreatment [6, 8]: expected increases in blood pressure | PAI-1 response, Ang II after amastatin pretreatment (PAI-1 [7]; [8]): PAI-1 response was reduced considerably

Molecule: CNCC(=O)N[C@@H](CCCN=C(N)N)C(=O)N[C@H](C(=O)N[C@@H](Cc1ccc(O)cc1)C(=O)N[C@H](C(=O)N[C@@H](Cc1cnc[nH]1)C(=O)N1CCC[C@H]1C(=O)N[C@@H](C)C(=O)O)C(C)C)C(C)C [saralasin, (Sar^1,Val^5,Ala^8)-angiotensin]
effect on Ang II stimulation of PAI-1 mRNA levels (PAI-1 mRNA): does not appear to be prevented | Ki (AT1 receptor): 0.4 nM

Molecule: ^125 I-Ang II: ^125 I labelled Ang II
character of binding to bovine aortic endothelial cells ([1]; FIG. 2): saturable and specific manner | Kd ([1]; Scatchard transformation of specific binding, room temperature, read-out: apparent Kd): ~2 nM | Bmax ([1]; Scatchard transformation, room temperature): 105 fmol/10^6 cells | time to binding equilibrium ([1]; room temperature): ≤ 45 min
